From publication PMC11671014 (PLOS Pathogens, 2024)
Read-outs that look alike come from different tables or passages of the source.

How the values were obtained:
[1] = system: Cam3.II^rev parasite cultures, trophozoite (25–30 h.p.i.) stage; assay: 6-h pulse exposure of synchronized trophozoites, SYBR Green I growth inhibition in next cycle; type: cell-based; conditions: Plasmodium falciparum, read-out: P. falciparum 6-h Trophozoite Stage IC50 (Cam3.II)
Description: Assessment of the killing activity of ML901 in pulsed exposure assays was performed using a modification of a previously described procedure. Briefly, cultures of Cam3.II^rev trophozoites (1.5% final hematocrit; 1.4% final parasitemia) were pre-synchronized to a 5-h window at trophozoite or schizont stage. Compounds were serially diluted in complete medium in v-bottomed microplates. Parasites were exposed to ML901 for 3 h, 6 h, 9 h or 24 h before washing 5 times with 200 μl of complete medium, then returned to culture conditions. For the no wash samples, ML901 was left in the culture until the assay point. Growth inhibition was assessed in the second cycle by labelling with the DNA-binding dye, SYBR Green I. Quantification of total DNA level reflects cytostatic effects as well as cytocidal effects. Old media (140 μl) was firstly replaced with fresh media, followed by the addition of lysis buffer (20 mM Tris, pH 7.5, 5 mM EDTA, 0.008% w/v saponin, 0.08% v/v Triton X-100) containing SYBR Green I. Plates were incubated at room temperature for 2 h and fluorescence readings were taken using a microplate reader (BMG LABTECH).

[2] = system: Pf3D7-pfs16-CBG99 gametocytes, immature (stage II/III) and mature (stage V); assay: Gametocyte killing assay (luciferase); type: cell-based; conditions: Plasmodium falciparum, 48 h
Description: Gametocytogenesis was induced on a tightly synchronised (>97% rings) asexual parasite culture (Pf3D7-pfs16-CBG99 (kind gift from Pietro Alano), 0.5% parasitemia and 6% hematocrit) with a combination of nutrient starvation and a decrease in hematocrit, as previously described. For immature gametocytes (>90% stage II/III), cultures were exposed to 50 mM N-acetyl glucosamine (NAG) on days 1–4 to eliminate residual asexual parasites and harvested at days 5–6. For mature (>95% stage V) gametocytes, NAG treatment occurred from days 3–7 and harvest at day 13. Stage II/III and V gametocyte cultures (2 % gametocytaemia 1.5 % haematocrit, 150 μL/well) were exposed to compounds and incubated at 37°C for 48 h under hypoxic conditions, after which luciferase activity was determined with a non-lysing D-luciferin substrate (1mM in 0.1M citrate buffer, pH 5.5, 100 μL) and bioluminescence was detected with a 2 s integration time with a GloMax-Multi Detection System with Instinct software.

HsTyrRS = molecular target: T1, HsTyrRS (Homo sapiens, UniProt P54577); assay: Differential scanning fluorimetry (DSF) of HsTyrRS; type: binding; conditions: for thermal stabilisation of recombinant HsTyrRS (in words): with all substrates; for HsTyrRS Tm: with sulfamate, tyrosine and tRNA, apo 49.0 ± 0.2
T1 sequence (P54577 1-528): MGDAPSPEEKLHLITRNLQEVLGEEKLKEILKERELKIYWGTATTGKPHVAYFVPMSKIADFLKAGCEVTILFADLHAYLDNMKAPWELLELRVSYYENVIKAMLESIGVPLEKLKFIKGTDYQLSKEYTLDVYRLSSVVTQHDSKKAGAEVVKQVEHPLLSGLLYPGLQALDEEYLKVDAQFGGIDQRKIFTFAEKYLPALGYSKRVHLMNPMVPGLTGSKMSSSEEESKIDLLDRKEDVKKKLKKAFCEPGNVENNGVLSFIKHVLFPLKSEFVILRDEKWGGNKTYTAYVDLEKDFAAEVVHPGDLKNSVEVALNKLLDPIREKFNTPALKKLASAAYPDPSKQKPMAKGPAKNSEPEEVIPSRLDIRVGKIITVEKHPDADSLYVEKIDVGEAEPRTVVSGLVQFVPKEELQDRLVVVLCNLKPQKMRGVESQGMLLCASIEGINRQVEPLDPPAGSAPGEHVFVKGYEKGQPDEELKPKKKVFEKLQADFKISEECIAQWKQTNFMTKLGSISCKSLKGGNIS
Description: The effect on ML471 and analogues on the thermal stability of TyrRS enzymes was assayed as previously described. […] SYPRO Orange (Sigma-Aldrich; 5,000X concentrate in DMSO) was added to the reaction mixture at a final concentration of 5X. 25 μL of the sample was added into each well of a 96-well qPCR plate (Applied Biosystems). The plate was sealed and analysed using StepOnePlus Real-Time PCR system (Applied Biosystems). The samples were heated from 20°C to 90°C with a 1% continuous gradient. The thermal unfolding curve was plotted as the first derivative curve of the raw fluorescence values. The melting temperature (Tm), defined as the peak of the first derivative curve, was used to assess the thermal stability of protein-ligand complexes.

Primary hepatocytes = assay: Toxicity to primary hepatocyte host cells in the liver stage assay; type: cell-based, human; conditions: for IC50: Homo sapiens, Hepatocyte
Description: (§1) Activity against liver stage parasites was performed using a modification of published procedures. Briefly, cryopreserved human primary hepatocytes (NF175: H1500.H15B+ Lot No. HC0-6, TebuBio or NF135: F00995-P Lot No. IRZ, BioIVT) were thawed and seeded at 18,000 cells per well in collagen-coated 384-well microtiter plates in medium containing 10% heat inactivated fetal bovine serum (hiFBS). Cells were cultured at 37°C in 5% CO2. For NF175, medium was replaced by fresh medium containing 10% hiFBS, 5 h post plating. For NF135, medium was replaced by medium containing 0.2% BSA, 24 h post plating. 48 h post plating, salivary glands from Plasmodium-NF175 or NF135-infected Anopheles stephensi mosquitoes were dissected, added to the hepatocytes (10,000 per well/ NF175; or 12,500 per well/ NF135) and allowed to infect for 3 hours. Sporozoites were then aspirated, and compounds diluted in medium containing 10% hiFBS or 0.2% BSA, were added to the hepatocytes. Medium containing 10% hiFBS or 0.2% BSA and compounds was refreshed daily for four days. Hepatocytes were fixed with ice-cold methanol and samples were blocked with 10% hiFBS in PBS. Schizonts were stained with rabbit anti-HSP70 in 10% hiFBS for 1–2 h followed by incubation with a mixture of secondary goat anti-rabbit AlexaFluor 594 antibody and 4′,6-diamidine-2′-phenylindole dihydrochloride (DAPI) in 10% hiFBS for 30 min. Samples were washed with PBS containing 0.05% Tween 20 between different steps. Cells were imaged on a PicoExpress high content imager, and images were analysed automatically using CellReporterXpress software. Data were analysed by logistic regression using a four-parameter (Hill equation) model and a least-squares method to find the best fit.

[3] = system: P. falciparum liver stage schizont (NF135); assay: Liver stage schizont assay in primary human hepatocytes (NF135); type: cell-based; conditions: Plasmodium falciparum, Hepatocyte, 96 h, four days
Description: as §1

[4] = read-out: Early stage gametocytes IC50
[5] = read-out: Mature stage gametocytes IC50
[6] = host cells of the NF135 experiment
[7] = host cells of the NF175 experiment

In the case of `Nc1ncnc2c1c(C(F)(F)F)nn2[C@@H]1O[C@H](COS(N)(=O)=O)[C@@H](O)[C@H]1O` [ML107], the IC50 [1] is reported as 150 ± 33 nM.
`CC(C)Oc1nn([C@@H]2O[C@H](COS(N)(=O)=O)[C@@H](O)[C@H]2O)c2ncnc(N)c12` [ML723] was tested, and the IC50 [1] was 220 ± 31 nM.
With `Nc1ncnc2c1c(OC(F)F)nn2[C@@H]1O[C@H](COS(N)(=O)=O)[C@@H](O)[C@H]1O` [ML901] the IC50 [2, 4] was 310 ± 60 nM, the IC50 [2, 5] was 1660 ± 140 nM and the IC50 [1] was 135 ± 14 nM. For the same molecule, the “HsTyrRS binding (DSF) Delta Tm” value (HsTyrRS; 200 μM sulfamate, ATP, tyrosine, yeast tRNA, 37°C 4 h) was 0.4 ± 0.1 °C, the “thermal stabilisation of recombinant HsTyrRS (in words)” value (HsTyrRS) was “not stabilised” and the “HsTyrRS Tm” value (HsTyrRS; ATP) was 49.4 ± 0.1 °C. The IC50 (Primary hepatocytes; [6]) was > 100 nM, the IC50 (Primary hepatocytes; [7]) was > 10000 nM and the IC50 [3] was 2.9 ± 0.9 nM.
`CC(C)c1nn([C@@H]2O[C@H](COS(N)(=O)=O)[C@@H](O)[C@H]2O)c2ncnc(N)c12` [ML471, ((2R,3S,4R,5R)-5-(4-amino-3-isopropyl-1H-pyrazolo[3,4-d]pyrimidin-1-yl)-3,4-dihydroxytetrahydrofuran-2-yl)methyl sulfamate] gave an IC50 [2, 4] of 112 nM, an IC50 [2, 5] of 392 nM and an IC50 [1] of 29.1 ± 3 nM. For the same molecule, the ΔTm at 200 µM (HsTyrRS; 200 μM sulfamate, ATP, tyrosine, yeast tRNA, 37°C 4 h, read-out: HsTyrRS binding (DSF) Delta Tm) was 0.06 ± 0.04 °C, the “thermal stabilisation of recombinant HsTyrRS (in words)” value (HsTyrRS) was “not stabilised” and the “HsTyrRS Tm” value (HsTyrRS; ATP) was 49.0 ± 0.2 °C. The “toxicity against the primary hepatocyte host cells (in words)” value (Primary hepatocytes) was “no toxicity”, the IC50 (Primary hepatocytes; [6]) was > 100 nM and the IC50 (Primary hepatocytes; [7]) was > 10000 nM. The IC50 [3] was 5.5 nM.
